Measurements taken from article PMC6244841, “Enhanced Absorption and Growth Inhibition with Amino Acid Monoester Prodrugs of Floxuridine by Targeting hPEPT1 Transporters” (Molecules, 2008).
Marks after values point to notes of the source that are not given here.

Assays:
[1] = Chemical stability (nonenzymatic hydrolysis) in pH 7.4 phosphate buffer; assay type: physicochemical; conditions: 37°C, mean ± S.D.
Experimental: (§1) The experiments concerning prodrug stability were performed at 37°C in pH 7.4 phosphate buffers and Caco-2, AsPC-1, and MDCK cell homogenates.
Chemical Stability. The nonenzymatic hydrolysis of the prodrugs was determined as described above, except that each well contained pH 7.4 phosphate buffers (10 mmol/L) instead of cell homogenate.
(§2) The initial rates of hydrolysis were used to obtain the apparent first-order rate constants and to calculate the half-lives. The apparent first-order degradation rate constants of various floxuridine prodrugs at 37°C were determined by plotting the logarithm of prodrug remaining as a function of time. The slopes of these plots are related to the rate constant, k, and given by
(§3) k = 2.303 × slope (log C vs. time) (1)
(§4) The degradation half-lives were then calculated by the equation

[2] = Enzymatic stability in Caco-2 cell homogenates; assay type: in vitro ADME; conditions: for half-life: human, Caco-2, pH 7.4, 37°C, protein 500 μg/mL, mean ± S.D., read-out: Half Life, Homogenates from Caco-2 cells
Experimental: as §1
(§5) Enzymatic Stability. Confluent Caco-2 cells, AsPC-1 cells, and MDCK cells were rinsed twice with saline. The cells were washed with pH 7.4 phosphate buffer (5 mL, 10 mmol/L), lysed by ultrasonication (Micro ultrasonic cell disrupter Model KT40, Kontes, Vineland, NJ, USA), and pelleted by centrifugation for 5 minutes at 1,000 x g. Protein amount was quantified with the Bio-Rad (Hercules, CA, USA) DC Protein Assay using bovine serum albumin as a standard. The amount of protein was adjusted to 500 μg/mL and hydrolysis reactions were carried out in 96-well plates (Corning). Caco-2, AsPC-1, and MDCK cell suspensions (250 µL) were placed in triplicate wells, the reactions were started with the addition of substrate, and cells were incubated at 37°C for 120 minutes. At the desired time point, sample aliquots (35 µL) were removed and added to acetonitrile (ACN, 150 µL) with 0.1% TFA. The mixtures were filtered with a 0.45 µm filters at 1,000 x g for 10 minutes at 4°C. The filtrate was then analyzed via reverse-phase HPLC.
as §2, §3, §4

[3] = Enzymatic stability in AsPC-1 cell homogenates; assay type: in vitro ADME; conditions: for half-life: human, AsPC-1 cell homogenate, pH 7.4, 37°C, protein 500 μg/mL, mean ± S.D., read-out: Half Life, Homogenates from AsPC-1 cells
Experimental: as §1, §5, §2, §3, §4

[4] = Enzymatic stability in MDCK cell homogenates; assay type: in vitro ADME; conditions: dog, pH 7.4, 37°C, protein 500 μg/mL, mean ± S.D., read-out: Half Life, Homogenates from MDCK cells
Experimental: as §1, §5, §2, §3, §4

hPEPT1 [5] = molecular target: T1, hPEPT1 (Homo sapiens, UniProt P46059); experiment: [3H]Gly-Sar uptake inhibition in Caco-2 cells; assay type: cell-based; conditions: for IC50: 10 µmol/L Gly-Sar, 30 minutes, mean ± S.D., read-out: IC50 Value, inhibition of Gly-Sar uptake, Caco-2 cell
T1 sequence (P46059 1-708): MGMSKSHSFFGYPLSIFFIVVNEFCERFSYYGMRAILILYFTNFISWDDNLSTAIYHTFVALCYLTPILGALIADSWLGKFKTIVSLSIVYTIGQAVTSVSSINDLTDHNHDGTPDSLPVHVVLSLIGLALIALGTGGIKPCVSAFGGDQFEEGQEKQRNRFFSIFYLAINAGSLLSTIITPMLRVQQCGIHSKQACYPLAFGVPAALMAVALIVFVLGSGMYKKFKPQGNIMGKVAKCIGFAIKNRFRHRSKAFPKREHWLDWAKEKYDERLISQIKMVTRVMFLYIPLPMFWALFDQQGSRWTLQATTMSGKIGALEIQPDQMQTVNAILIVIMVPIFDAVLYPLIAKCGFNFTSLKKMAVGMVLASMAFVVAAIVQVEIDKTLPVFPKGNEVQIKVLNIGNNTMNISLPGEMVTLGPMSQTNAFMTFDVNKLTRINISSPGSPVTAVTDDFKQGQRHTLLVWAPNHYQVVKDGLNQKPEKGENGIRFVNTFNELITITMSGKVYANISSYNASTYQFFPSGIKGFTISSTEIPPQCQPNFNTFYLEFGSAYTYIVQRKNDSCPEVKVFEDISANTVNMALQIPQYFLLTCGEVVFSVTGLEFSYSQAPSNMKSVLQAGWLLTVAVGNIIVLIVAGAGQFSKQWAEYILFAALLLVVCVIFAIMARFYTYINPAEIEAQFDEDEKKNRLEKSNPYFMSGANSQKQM
Experimental: (§6) Caco-2 cells at nine days post-seeding, and AsPC-1 cells at four days post-seeding were incubated with 10 µmol/L Gly-Sar (9.98 µmol/L Gly-Sar and 0.02 µmol/L [3H]Gly-Sar) along with various prodrug concentrations (5–0.05 mmol/L) for 30 minutes. The cells were washed three times with ice-cold PBS and solubilized with 10 mL of scintillation cocktail (ScintiVerse®, Fisher Scientific, St.Louis, MO, USA). The amount of cell-associated radioactivity was determined by scintillation counting (Beckman LS-9000, Beckman Instruments, Fullerton, CA, USA). The half maximal inhibitory concentration (IC50) values were determined using nonlinear data fitting (GraphPad Prism version 3.0).

hPEPT1 [6] = molecular target: T1, hPEPT1; experiment: [3H]Gly-Sar uptake inhibition in AsPC-1 cells; assay type: cell-based; conditions: for IC50: 10 µmol/L Gly-Sar, 30 minutes, mean ± S.D., read-out: IC50 Value, inhibition of Gly-Sar uptake, AsPC-1 cell
Experimental: as §6

MDCK cells = experiment: Cell proliferation assay (XTT) in MDCK cells; assay type: cell-based; conditions: Canis lupus familiaris, 2 hours exposure, 24 hours recovery, mean ± S.D.
Experimental: (§7) Cell proliferation studies were conducted with MDCK cells and MDCK cells that express hPEPT1 (MDCK/hPEPT1). The cells were seeded into 96-well plates at 125,000 cells per well and allowed to attach/grow for 24 hours before drug solutions were added. The culture medium (DMEM + 10% fetal bovine serum) was removed and the cells were gently washed once with sterile pH 6.0 uptake buffer. Floxuridine and floxuridine prodrugs were 2-fold serially diluted in pH 6.0 uptake buffer from 4 to 0.25 mmol/L. Buffer alone was used as 100% viability control. The wash buffer was removed and 30 µL drug solution per well was added and incubated at 37°C for 2 hours in the cell incubator. After this time, the drug solutions were removed and the cells were again gently washed twice with sterile uptake buffer. The culture medium was then added to each well after washing. The cells were allowed to recover for 24 hours before evaluating cell viability via 2,3-bis[2-methoxy-4-nitro-5-sulfophenyl]-2H-tetrazolium-5-carboxanilide inner salt (XTT) assays. A mixture (30 µL) containing XTT (1 mg/mL) in sterile DMEM without phenol red and phenazine methosulfate (N-methyldibenzopyrazine methyl sulfate in sterile PBS, 0.383 mg/mL) reagents were added to the cells and incubated at 37°C for 1 hour, after which the absorbance at 450 nm was read. The concentrations required to inhibit cell growth by 50% (GI50) were calculated using GraphPad Prism version 3.0 by nonlinear data fitting.

MDCK/hPEPT1 cells = experiment: Cell proliferation assay (XTT) in MDCK/hPEPT1 cells; assay type: cell-based; conditions: for GI50: Canis lupus familiaris, MDCK, read-out: GI50, MDCK/hPEPT1
Experimental: as §7

[7] = parameters: method as in PMID 16132363; conditions: pH 7.4 phosphate buffer, 37°C, mean ± S.D.; ref [40]; cited from earlier work
[8] = Caco-2 permeability study (apical-to-basolateral); conditions: relative to 5-FU
[9] = relative to 5'-O-L-valyl-floxuridine

CC(C)[C@@H](N)C(=O)OC[C@H]1O[C@@H](n2cc(F)c(=O)[nH]c2=O)C[C@@H]1O [5'-O-D-valyl-floxuridine]
half-life [1]: 345 ± 10.2 min
half-life [2]: 343 ± 120 min
half-life [3]: 291 ± 48.9 min
half-life [4]: 312 ± 45.4 min
IC50 (hPEPT1 [5]): 2600 ± 100 µM
fold less inhibition of the transporters than 5'-O-L-valyl-floxuridine, Caco-2 cells (hPEPT1 [5]; [9]): 2.5 fold
IC50 (hPEPT1 [6]): 4800 ± 1300 µM
fold less inhibition of the transporters than 5'-O-L-valyl-floxuridine, AsPC-1 cells (hPEPT1 [6]; [9]): 1.6 fold
GI50 (MDCK cells): 88.5 ± 2.6 µM
GI50 (MDCK/hPEPT1 cells): 71 ± 2.7 µM
Enhancement Factor (ratio of GI50 in MDCK and MDCK/hPEPT1 cells) (MDCK/hPEPT1 cells): 1.25
improvement of cell growth inhibition in MDCK/hPEPT1 cells (MDCK/hPEPT1 cells; MDCK/hPEPT1 vs MDCK): 25%

NCC(=O)OC[C@H]1O[C@@H](n2cc(F)c(=O)[nH]c2=O)C[C@@H]1O [5'-O-L-glycyl-floxuridine]
half-life [1]: 85.5 ± 3.2 min
half-life [2]: 24.1 ± 2 min
half-life [3]: 27.6 ± 5.8 min
half-life [4]: 11.2 ± 2 min
IC50 (hPEPT1 [5]): 2300 ± 600 µM
IC50 (hPEPT1 [6]): 2700 ± 500 µM

CC[C@H](C)[C@H](N)C(=O)OC[C@H]1O[C@@H](n2cc(F)c(=O)[nH]c2=O)C[C@@H]1O [5'-O-L-isoleucyl-floxuridine]
half-life [2]: 192 ± 31.8 min
half-life [3]: 198 ± 34.1 min
half-life [4]: 245 ± 18.3 min
IC50 (hPEPT1 [5]): 700 µM
IC50 (hPEPT1 [6]): 4100 ± 1800 µM
GI50 (MDCK cells): 186 ± 4.2 µM
GI50 (MDCK/hPEPT1 cells): 10.3 ± 2.9 µM
Enhancement Factor (ratio of GI50 in MDCK and MDCK/hPEPT1 cells) (MDCK/hPEPT1 cells): 18.04
Enhancement Factor (ratio of GI50 in MDCK and MDCK/hPEPT1 cells) (MDCK/hPEPT1 cells; listed as 5ʹ-O-L-isoleucyl-floxuridine): 18
Half Life, Buffer pH 7.4 [7]: 323.5 ± 1.5^a min

CC(C)C[C@H](N)C(=O)OC[C@H]1O[C@@H](n2cc(F)c(=O)[nH]c2=O)C[C@@H]1O [5'-O-L-leucyl-floxuridine]
half-life [1]: 77.3 ± 1.2 min
half-life [2]: 4.8 ± 0.2 min
fold more quickly hydrolyzed in AsPC-1 cell homogenates than in Caco-2 cell homogenates ([3]; AsPC-1 vs Caco-2 homogenates): 2.4 fold
fold more quickly hydrolyzed in AsPC-1 cell homogenates than in MDCK cell homogenates ([3]; AsPC-1 vs MDCK homogenates): 4.7 fold
half-life [3]: 2 ± 0.1 min
half-life [4]: 9.2 ± 1.1 min
IC50 (hPEPT1 [5]): 2000 ± 300 µM
IC50 (hPEPT1 [6]): 2600 ± 200 µM
GI50 (MDCK cells): 23.5 ± 3 µM
GI50 (MDCK/hPEPT1 cells): 2.3 ± 1 µM
Enhancement Factor (ratio of GI50 in MDCK and MDCK/hPEPT1 cells) (MDCK/hPEPT1 cells): 10.09
Enhancement Factor (ratio of GI50 in MDCK and MDCK/hPEPT1 cells) (MDCK/hPEPT1 cells; listed as 5ʹ-O-L-leucyl-floxuridine): 10

N[C@@H](Cc1ccccc1)C(=O)OC[C@H]1O[C@@H](n2cc(F)c(=O)[nH]c2=O)C[C@@H]1O [5'-O-L-phenylalanyl-floxuridine]
half-life [1]: 222 ± 56.7 min
fold less stability in cell homogenates compared to pH 7.4 phosphate buffers ([2]; cell homogenates vs pH 7.4 phosphate buffers): 20 fold
half-life [2]: 11.1 ± 9.9 min
half-life [3]: 11.8 ± 1.7 min
half-life [4]: 6 ± 0.6 min
IC50 (hPEPT1 [5]): 2100 ± 100 µM
IC50 (hPEPT1 [6]): 2000 ± 100 µM
GI50 (MDCK cells): 41.3 ± 3.9 µM
GI50 (MDCK/hPEPT1 cells): 4.7 ± 2.4 µM
Enhancement Factor (ratio of GI50 in MDCK and MDCK/hPEPT1 cells) (MDCK/hPEPT1 cells): 8.80

CC(C)[C@H](N)C(=O)OC[C@H]1O[C@@H](n2cc(F)c(=O)[nH]c2=O)C[C@@H]1O [5'-O-L-valyl-floxuridine]
half-life [1]: 304 ± 17.8 min
fold shorter half-life in Caco-2 cell homogenates than in AsPC-1 cell homogenates ([2]; Caco-2 vs AsPC-1 cell homogenates): 2 fold
half-life [2]: 9.4 ± 0.6 min
half-life [3]: 18.7 ± 6.7 min
half-life [4]: 74.7 ± 5.3 min
IC50 (hPEPT1 [5]): 1000 ± 100 µM
IC50 (hPEPT1 [6]): 2900 ± 400 µM
GI50 (MDCK cells): 127 ± 7.7 µM
GI50 (MDCK/hPEPT1 cells): 21.1 ± 4.2 µM
Enhancement Factor (ratio of GI50 in MDCK and MDCK/hPEPT1 cells) (MDCK/hPEPT1 cells): 5.91
Enhancement Factor (ratio of GI50 in MDCK and MDCK/hPEPT1 cells) (MDCK/hPEPT1 cells; listed as 5ʹ-O-L-valyl-floxuridine): about 6

O=c1[nH]c(=O)n([C@H]2C[C@H](O)[C@@H](CO)O2)cc1F [Floxuridine, 5-fluoro-2'-deoxyuridine]
half-life [2]: 5.7 ± 0.3 min
half-life [3]: 6.4 ± 3.2 min
half-life [4]: 68.9 ± 12.8 min
IC50 (hPEPT1 [5]): 7300 ± 1600 µM
IC50 (hPEPT1 [6]): 6300 ± 2300 µM
Enhancement Factor (ratio of GI50 in MDCK and MDCK/hPEPT1 cells) (MDCK/hPEPT1 cells): 1.00
fold higher Caco-2 membrane permeability than 5-FU [8]: 12 fold
